According to publication PMC5325569, “A new synthetic matrix metalloproteinase inhibitor reduces human mesenchymal stem cell adipogenesis” (PLoS ONE, 2017):
Each block holds one compound with its values, some of them ahead of it.

Experiments:
MMP-1 = target: T1, MMP-1 (Homo sapiens, UniProt P03956); experiment: Fluorogenic substrate enzyme inhibition assay, MMP-1; format: biochemical; conditions: 25°C, HEPES pH 7.5, 5 μM TCEP, fluorogenic substrate 1 μM
T1 construct: gift of Dr. L. Jack Windsor (Indiana University, Indianapolis, IN)
T1 sequence (P03956 100-469): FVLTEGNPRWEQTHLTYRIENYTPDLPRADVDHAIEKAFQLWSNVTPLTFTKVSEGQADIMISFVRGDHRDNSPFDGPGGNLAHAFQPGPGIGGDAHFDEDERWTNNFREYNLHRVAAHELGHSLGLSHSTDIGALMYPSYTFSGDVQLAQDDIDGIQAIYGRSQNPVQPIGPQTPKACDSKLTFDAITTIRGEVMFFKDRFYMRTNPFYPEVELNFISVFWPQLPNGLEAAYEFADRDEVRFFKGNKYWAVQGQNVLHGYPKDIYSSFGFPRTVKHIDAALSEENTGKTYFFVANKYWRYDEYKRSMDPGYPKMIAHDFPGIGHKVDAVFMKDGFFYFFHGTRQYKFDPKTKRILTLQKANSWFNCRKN
Method: (§1) Enzymatic assays to characterize inhibitor potency were performed as previously described. Assays were performed at 25°C in 50 mM 4-(2-hydroxyethyl)-1-piperazineethanesulfonic acid (HEPES) buffer at pH 7.5 with 10 mM CaCl2, 200 mM NaCl, 0.01% (w/v) Brij-35, and 5 μM tris(2-carboxyethyl)[…] (TCEP). […] Briefly, 10 μL of inhibitor solution or control (100% DMSO), 176 μL of assay buffer, and 10 μL of enzyme solution were mixed and incubated for 30 min prior to initiation of the assay, which was accomplished by adding 4 μL of substrate solution, 5% final concentration DMSO. […] Inhibitor potency was determined via comparison of relative rates (vi/vo).

MMP-2 [1] = target: T2, MMP-2 (Homo sapiens, UniProt P08253); experiment: Fluorogenic substrate enzyme inhibition assay, MMP-2; format: biochemical; conditions: 25°C, HEPES pH 7.5, 5 μM TCEP, fluorogenic substrate 1 μM
T2 construct: gift of Dr. L. Jack Windsor (Indiana University, Indianapolis, IN)
T2 sequence (P08253 110-660): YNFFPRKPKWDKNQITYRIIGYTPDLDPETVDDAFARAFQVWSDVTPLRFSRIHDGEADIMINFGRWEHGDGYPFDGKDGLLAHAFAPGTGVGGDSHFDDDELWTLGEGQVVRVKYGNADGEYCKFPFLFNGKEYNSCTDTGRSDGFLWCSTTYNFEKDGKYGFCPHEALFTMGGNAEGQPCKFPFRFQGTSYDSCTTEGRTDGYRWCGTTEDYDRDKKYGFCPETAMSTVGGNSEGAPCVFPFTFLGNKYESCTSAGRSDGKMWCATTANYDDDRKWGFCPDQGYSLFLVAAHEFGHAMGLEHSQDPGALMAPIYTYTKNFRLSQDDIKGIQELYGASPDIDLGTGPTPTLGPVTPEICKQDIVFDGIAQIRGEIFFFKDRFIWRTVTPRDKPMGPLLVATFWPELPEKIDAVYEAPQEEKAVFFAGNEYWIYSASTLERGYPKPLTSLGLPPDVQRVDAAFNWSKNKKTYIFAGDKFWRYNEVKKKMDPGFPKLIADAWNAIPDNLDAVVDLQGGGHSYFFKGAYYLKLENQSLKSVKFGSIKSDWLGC
Method: as §1

MMP-7 = target: T3, MMP-7 (Homo sapiens, UniProt P09237); experiment: Fluorogenic substrate enzyme inhibition assay, MMP-7; format: biochemical; conditions: 25°C, HEPES pH 7.5, 5 μM TCEP, fluorogenic substrate 1 μM
T3 construct: gift of Dr. Harold E. Van Wart (Syntex, Palo Alto, CA)
T3 sequence (P09237 95-267): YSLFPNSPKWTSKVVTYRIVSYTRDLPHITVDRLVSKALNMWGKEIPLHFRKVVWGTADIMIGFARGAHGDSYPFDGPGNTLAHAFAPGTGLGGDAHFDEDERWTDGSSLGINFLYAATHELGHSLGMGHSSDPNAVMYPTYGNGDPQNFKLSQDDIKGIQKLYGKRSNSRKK
Method: (§2) Enzymatic assays to characterize inhibitor potency were performed as previously described. Assays were performed at 25°C in 50 mM 4-(2-hydroxyethyl)-1-piperazineethanesulfonic acid (HEPES) buffer at pH 7.5 with 10 mM CaCl2, 200 mM NaCl, 0.01% (w/v) Brij-35, and 5 μM tris(2-carboxyethyl)[…] (TCEP). The fluorogenic substrate Mca-PLGLDpa-AR-NH2 (M-1895, Bachem, Torrance, CA) was used at a concentration of 1 μM as the substrate to measure inhibition constants. Briefly, 10 μL of inhibitor solution or control (100% DMSO), 176 μL of assay buffer, and 10 μL of enzyme solution were mixed and incubated for 30 min prior to initiation of the assay, which was accomplished by adding 4 μL of substrate solution, 5% final concentration DMSO. The release of product was monitored by fluorescence (λex = 328 nm, λem = 393 nm) with a PerkinElmer luminescence spectrophotometer LS50B (FL WinLab v3.0) connected to a temperature-controlled water bath. Inhibitor potency was determined via comparison of relative rates (vi/vo).

MMP-9 = target: T4, MMP-9 (Homo sapiens, UniProt P14780); experiment: Fluorogenic substrate enzyme inhibition assay, MMP-9; format: biochemical; conditions: 25°C, HEPES pH 7.5, 5 μM TCEP, fluorogenic substrate 1 μM
T4 construct: human neutrophil gelatinase B was purified from human blood; from tissue; host or cells: human blood (neutrophils)
T4 sequence (P14780 94-707): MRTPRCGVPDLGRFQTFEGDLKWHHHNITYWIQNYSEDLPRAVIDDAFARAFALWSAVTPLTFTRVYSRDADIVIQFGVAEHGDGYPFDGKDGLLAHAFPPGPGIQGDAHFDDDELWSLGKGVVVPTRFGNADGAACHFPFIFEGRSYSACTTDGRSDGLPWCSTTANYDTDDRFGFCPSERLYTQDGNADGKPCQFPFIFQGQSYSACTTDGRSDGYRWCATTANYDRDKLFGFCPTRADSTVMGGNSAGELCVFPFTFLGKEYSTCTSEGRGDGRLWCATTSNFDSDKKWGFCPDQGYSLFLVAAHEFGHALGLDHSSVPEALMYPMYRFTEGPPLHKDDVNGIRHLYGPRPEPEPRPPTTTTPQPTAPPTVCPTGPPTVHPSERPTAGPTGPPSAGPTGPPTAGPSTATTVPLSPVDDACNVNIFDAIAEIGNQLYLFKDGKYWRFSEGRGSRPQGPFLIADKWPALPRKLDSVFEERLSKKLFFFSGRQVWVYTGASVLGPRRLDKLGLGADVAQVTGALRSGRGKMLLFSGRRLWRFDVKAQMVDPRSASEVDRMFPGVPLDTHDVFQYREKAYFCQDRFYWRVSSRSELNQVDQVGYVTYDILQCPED
Method: as §1

MMP-14 [2] = target: T5, MMP-14 (Homo sapiens, UniProt P50281); experiment: Fluorogenic substrate enzyme inhibition assay, MMP-14; format: biochemical; conditions: 25°C, HEPES pH 7.5, 5 μM TCEP, fluorogenic substrate 1 μM
T5 construct: gift of Dr. Harald Tscheche (Bielefeld University, Bielefeld, Germany)
Method: as §2

hMSCs [3] = experiment: Cytotoxicity assay (Trypan Blue, cell count); format: cell-based, human; conditions: 0–100 μM, 24 h
Method: Mercaptosulfonamide MMPIs were dissolved in 100% DMSO to generate 8 mM stock solutions and subsequently diluted with αMEM, while maintaining the final DMSO concentration at 1.25% (v/v). Media supplemented with a panel of final inhibitor concentrations ranging from 0–100 μM were then added to 70–80% confluent hMSC cultures and incubated for 24 h. At the end of treatment, inhibitor-conditioned media was removed and cells were washed with phosphate buffered saline (PBS) (pH 7.4) prior to being trypsinized (0.25% Trypsin, GE Healthcare), pelleted, and resuspended in 1 mL of fresh αMEM. Aliquots of the cell suspension for each condition were diluted 1:1 with 0.4% (w/v) Trypan Blue and counted with a hemocytometer. Relative cytotoxicity was determined by normalizing cell number for each condition against its respective control. A concentration was arbitrarily deemed cytotoxic if it produced a statistically significant reduction in cell number when compared to DMSO controls.

hMSCs [4] = experiment: Adipogenic differentiation, lipid accumulation, co-treatment with T0070907; format: cell-based, human; conditions: 10 μM compound with 10 μM T0070907
Method: (§3) Human MSCs were seeded into 6-well plates at 1,000 cells/cm^2. Upon reaching 70–80% confluence hMSCs were induced towards an adipogenic lineage by adding dexamethasone (0.5 μM), 3-isobutyl-1-methylxanthine ([…]), and indomethacin (50 μM) to the culture medium. Tested compounds were dissolved in DMSO and added to treatment wells during differentiation to a final total concentration of 10 μM with DMSO concentrations remaining constant (0.125% or 0.25% v/v) between conditions. Wells treated with appropriate concentrations of DMSO alone served as controls. Media and treatments were refreshed every 72 h for 21 days.
(§4) After 21 days of differentiation, hMSCs were washed with PBS and fixed with neutral buffered formalin for 1 h. Cells were then stained with 0.3% (w/v) Oil Red-O in 3:2 100% isopropyl alcohol to PBS for 20 min, washed with PBS, stained with 5 μg/mL Hoechst 33342 for 5 min, then washed again. Cultures were later imaged with an epifluorescence capable Nikon TE2000-E2 Eclipse microscope. Relative staining was determined with ImageJ (version 1.46c, National Institutes of Health, Bethesda, MD) by standardizing the area stained in each image to nuclei number prior to normalizing against DMSO treated controls.

hMSCs [5] = experiment: Relative cell number via nuclei counts in differentiating hMSCs; format: cell-based, human
Method: as §4
Fig 5 Co-treatment of differentiating hMSCs with T0070907 and MMPIs. […] DMSO vehicle was maintained consistent between treatments and used as control. (B) Relative cell number was determined via nuclei counts. […] Scale bar 150 μm. ** P < 0.05, ++ P < 0.05, ## P < 0.05 compared to T0070907.

PPARγ [6] = experiment: qPCR of PPARγ gene expression in hMSCs undergoing adipogenesis; format: cell-based, human; conditions: 10 μM, 21 days, harvested every 72 h, vs DMSO controls
Method: (§5) MMPI treated and untreated hMSCs were collected every 72 h over 21 days of differentiation. Total RNA from each time point was isolated using the E.Z.N.A. Total RNA Kit I (Omega Bio-Tek, Norcross, GA) and purified with the DNA-free RNA Kit (Zymo Research, Irvine, CA). RNA was resuspended in nuclease-free water, with concentrations determined via a Nanodrop UV-Vis Spectrophotometer (ThermoFisher Scientific, Waltham, MA). 500 ng of RNA was used for cDNA synthesis using qScript cDNA SuperMix (Quanta Bioscience, Gaitherburg, MD). 100 ng/μL cDNA was used as template for quantitative PCR on a 7500 Fast Real Time PCR system (Life Technologies, Carlsbad, CA) using PerfeCTa SYBR® Green SuperMix, Low Rox (Quanta Bioscience). Relative gene expression was determined via the 2^^(-ΔΔCt) method. Expression levels of PPARγ (peroxisome-proliferator activated receptor gamma) were determined. β-Actin was used as an endogenous control. Primers were designed with Primer-BLAST (NCBI) and purchased from Integrated DNA Technologies (IDT, Coralville, IA). MMP-2: forward: 5’-[…]-3’ reverse: 5’-[…]-3’; MMP-14: forward: 5’-[…]-3’ Reverse: 5’-[…]-3’; PPARγ: forward: 5’-[…]-3’ reverse: 5’-[…]-3’; β-Actin: forward: 5’-[…]-3’ reverse: 5’-[…]-3’.

MMP-2 [7] = experiment: qPCR of MMP-2 gene expression in hMSCs undergoing adipogenesis; format: cell-based, human; conditions: 10 μM
Method: as §5

MMP-14 [8] = experiment: qPCR of MMP-14 gene expression in hMSCs undergoing adipogenesis; format: cell-based, human; conditions: 10 μM
Method: as §5

[9] = set-up: method as in PMID 23631440; conditions: standard enzyme inhibition assay conditions; cited from earlier work
hMSCs [10] = experiment: Adipogenic differentiation, lipid accumulation by Oil Red-O staining; format: cell-based, human; conditions: 10 μM, 21 days differentiation, vs DMSO control
Method: as §3, §4

PPARγ [11] = tested on: PPARγ; set-up: method as in PMID 11877444; conditions: read-out: apparent IC50; cited from earlier work
[12] = set-up: method as in PMID 19752200; conditions: up to 50 μM; cited from earlier work
[13] = tested on: MDA-MB-231 breast cancer cells; set-up: method as in PMID 21498701; conditions: treatments up to 20 μM, without induction of apoptosis; cited from earlier work
[14] = tested on: MCF-7 breast cancer cells; set-up: method as in PMID 21498701; conditions: treatments up to 20 μM, without induction of apoptosis; cited from earlier work
[15] = Day 21, compared to the negative control

Structure (SMILES): O=C(Nc1ccncc1)c1cc([N+](=O)[O-])ccc1Cl [T0070907]
Reduction of lipid accumulation (hMSCs [10]): 20% | Reduction of relative cell number (hMSCs [5]; 10 μM, nuclei counts): approximately 30% | IC50 (PPARγ [11]): […] | Cytotoxicity [12]: minimally cytotoxic | Proliferation of MDA-MB-231 cells [13]: […] | Proliferation of MCF-7 cells [14]: […]

Structure (SMILES): Cc1c(C)c2c(c(C)c1O)CCC(C)(COc1ccc(CC3SC(=O)NC3=O)cc1)O2 (centres unmarked) [Troglitazone]
Increase of lipid accumulation (hMSCs [10]): approximately 80%

Now from value to compound, other results behind:

IC50 (MMP-1): 1200 ± 370 nM | IC50 (MMP-2 [1]): 5.5 ± 4.2 nM | IC50 (MMP-7): 2400 ± 720 nM | IC50 (MMP-9): 87 ± 9 nM | IC50 (MMP-14 [2]): 4.3 ± 0.7 nM
Structure (SMILES): NCCCCCC(=O)N1C[C@H](NS(=O)(=O)c2ccc(Oc3ccccc3)cc2)[C@@H](S)C1 (relative stereo) [YHJ-7-52]
Concentration producing a significant reduction in cell number (hMSCs [3]): 100 µM | Further reduction of lipid accumulation on co-treatment with T0070907 (hMSCs [4]): ~ 20% | Further reduction of cell number on co-treatment with T0070907 (hMSCs [5]; 10 μM compound with 10 μM T0070907): did not result in further cell number reductions | PPARγ expression (PPARγ [6]): significantly suppressed PPARγ expression after day 9 | MMP-2 gene expression level on Day 21 (MMP-2 [7]; [15]): significantly higher | MMP-2 gene expression level (MMP-2 [7]; over 21 days, vs DMSO control): does not affect | MMP-14 gene expression level on Day 21 (MMP-14 [8]; [15]): significantly higher | MMP-14 gene expression level (MMP-14 [8]; over 21 days, vs DMSO control): does not affect | Stability [9]: lower stability than the hydroxamate MMPI GM6001

IC50 (MMP-1): > 200000 nM | IC50 MMP-1 (MMP-1): almost undetectable inhibitory activity | IC50 (MMP-2 [1]): > 100000 nM | IC50 MMP-2 (MMP-2 [1]): almost undetectable inhibitory activity | IC50 (MMP-7): > 200000 nM | IC50 MMP-7 (MMP-7): almost undetectable inhibitory activity | IC50 (MMP-9): > 200000 nM | IC50 MMP-9 (MMP-9): almost undetectable inhibitory activity | IC50 (MMP-14 [2]): > 200000 nM | IC50 MMP-14 (MMP-14 [2]): almost undetectable inhibitory activity
Structure (SMILES): NCCCCCC(=O)N1C[C@H](NS(=O)(=O)c2ccc(Oc3ccccc3)cc2)[C@@H](O)C1 (relative stereo) [YHJ-7-82]
Cytotoxicity (hMSCs [3]): minimal cytotoxicity across all tested concentrations | Reduction of lipid accumulation (hMSCs [10]): did not produce a significant response | Further reduction of lipid accumulation on co-treatment with T0070907 (hMSCs [4]): did not provide any additional reductions

IC50 (MMP-7): 2 ± 1.9 nM | IC50 (MMP-14 [2]): 0.5 ± 0.1 nM
Structure (SMILES): CNC(=O)[C@H](Cc1c[nH]c2ccccc12)NC(=O)[C@@H](CC(=O)NO)CC(C)C [GM6001, reference compound]
Reduction of lipid accumulation (hMSCs [10]): ~20% | Further reduction of lipid accumulation on co-treatment with T0070907 (hMSCs [4]): ~ 20%
